Data taken from patent US9518018B2, “3-alkoxy, thioalkyl and amino-4-amino-6-(substituted)picolinates and their use as herbicides” (Dow AgroSciences LLC, priority 2011, dated 2016).

Assays:
Assay in all cases: In-water applied herbicidal activity in transplanted paddy rice
Format in all cases: in vivo
[1] = test system: ECHCG = Echinochloa crus-galli (L.) P.BEAUV. (barnyardgrass)
Method: (§1) Weed seeds or nutlets of the desired test plant species were planted in puddled soil (mud) prepared by mixing a non-sterilized mineral soil (28 percent silt, 18 percent clay, and 54 percent sand, with a pH of about 7.3 to 7.8 and an organic matter content of about 1.0 percent) and water at a ratio of 100 kilograms (kg) of soil to 19 liters (L) of water. The prepared mud was dispensed in 250 mL aliquots into 480 mL non-perforated plastic pots with a surface area of 86.59 cm^2 leaving a headspace of 2.5 to 3 cm in each pot. Rice seeds were planted in Sun Gro MetroMix 306 planting mixture, which typically has a pH of 6.0 to 6.8 and an organic matter content of about 30 percent, in plastic plug trays. Seedlings at the second or third leaf stage of growth were transplanted into 650 mL of mud contained in 960 mL non-perforated plastic pots with a surface area of 86.59 cm^2 four days prior to herbicide application. The paddy was created by filling the 2.5 to 3 cm headspace of the pots with water. When required to ensure good germination and healthy plants, a fungicide treatment and/or other chemical or physical treatment was applied. The plants were grown for 4-14 d in a greenhouse with an approximate 14-h photoperiod which was maintained at about 29° C. during the day and 26° C. during the night. Nutrients were added as Osmocote (17:6:10, Nitrogen:Phosphorus:Potassium (N:P:K)+minor nutrients) at 2 grams (g) per cup. Water was added on a regular basis to maintain the paddy flood, and supplemental lighting was provided with overhead metal halide 1000-Watt lamps as necessary. The plants were employed for testing when they reached the second or third true leaf stage. Treatments consisted of compounds 45, 34, and 66. For technical grade compounds, a weighed amount, determined by the highest rate to be tested, was placed in an individual 120 mL glass vial and was dissolved in 20 mL of acetone to obtain concentrated stock solutions. […] The concentrated stock solutions obtained were diluted with 20 mL of an aqueous mixture containing 2.5% Agri-dex crop oil concentrate (v/v). Applications were made by injecting an appropriate amount of the stock solution into the aqueous layer of the paddy. Control plants were treated in the same manner with the solvent blank. All treated plant material received the same concentration of acetone and crop oil concentrate. The treated plants and control plants were placed in a greenhouse as described above and water was added as needed to maintain a paddy flood. After approximately 3 weeks, the condition of the test plants, compared with that of the untreated plants, was determined visually and scored on a scale of 0 to 100 percent where 0 corresponds to no injury and 100 corresponds to complete kill. By applying the well-accepted probit analysis as described by J. Berkson in Journal of the […], 48, 565 (1953) and by D. Finney in “Probit Analysis” Cambridge University Press (1952) or by plotting the mean data and fitting a logarithmic curve to the portion of the data where there was a dose response using Microsoft Excel®, the above data can be used to calculate GR50 and GR90 values, which are defined as growth reduction factors that correspond to the effective dose of herbicide required to kill or control 50 percent or 90 percent, respectively, of a target plant.

[2] = test system: CYPDI = Cyperus difformis L. (small-flower flatsedge)
Method: as §1

[3] = test system: SCPJU = Scirpus juncoides ROXB. (Japanese bulrush)
Method: as §1

[4] = test system: ORYSA = Oryza sativa ‘Wells’ (rice)
Method: as §1

[5] = test system: ORYSA = Oryza sativa ‘M202’ (rice)
Method: as §1

[6] = test system: MOOVA = Monochoria vaginalis (BURM.f.) C.PRESL ex KUNTH (monochoria)
Method: as §1

[7] = Table 7, dose to kill or control 50 percent, 21 days after application
[8] = Table 7, dose to kill or control 90 percent, 21 days after application

## COC(=O)c1nc(-c2ccc(Cl)c(OC)c2F)c(F)c(N)c1OC [Compound 34]
[1]; Table 7, 8.75 g ae/ha
  Mean Visual Injury (%)-21 Days After Application ECHCG: 0%
[1]; Table 7, 17.5 g ae/ha
  Mean Visual Injury (%)-21 Days After Application ECHCG: 7%
[1]; Table 7, 35 g ae/ha
  Mean Visual Injury (%)-21 Days After Application ECHCG: 90%
[1]; Table 7, 70 g ae/ha
  Mean Visual Injury (%)-21 Days After Application ECHCG: 98%
[1]; Table 7, 140 g ae/ha
  Mean Visual Injury (%)-21 Days After Application ECHCG: 100%
[1]; [7]
  GR50 ECHCG: 25.4 g ae/ha
[1]; [8]
  GR90 ECHCG: 52.9 g ae/ha
[2]; Table 7, 8.75 g ae/ha
  Mean Visual Injury (%)-21 Days After Application CYPDI: 100%
[2]; Table 7, 17.5 g ae/ha
  Mean Visual Injury (%)-21 Days After Application CYPDI: 100%
[2]; Table 7, 35 g ae/ha
  Mean Visual Injury (%)-21 Days After Application CYPDI: 100%
[2]; Table 7, 70 g ae/ha
  Mean Visual Injury (%)-21 Days After Application CYPDI: 100%
[2]; Table 7, 140 g ae/ha
  Mean Visual Injury (%)-21 Days After Application CYPDI: 100%
[2]; [7]
  GR50 CYPDI: <8.75 g ae/ha
[2]; [8]
  GR90 CYPDI: <8.75 g ae/ha
[3]; Table 7, 8.75 g ae/ha
  Mean Visual Injury (%)-21 Days After Application SCPJU: 67%
[3]; Table 7, 17.5 g ae/ha
  Mean Visual Injury (%)-21 Days After Application SCPJU: 90%
[3]; Table 7, 35 g ae/ha
  Mean Visual Injury (%)-21 Days After Application SCPJU: 100%
[3]; Table 7, 70 g ae/ha
  Mean Visual Injury (%)-21 Days After Application SCPJU: 100%
[3]; Table 7, 140 g ae/ha
  Mean Visual Injury (%)-21 Days After Application SCPJU: 100%
[3]; [7]
  GR50 SCPJU: <8.75 g ae/ha
[3]; [8]
  GR90 SCPJU: 21.1 g ae/ha
[4]; Table 7, 8.75 g ae/ha
  Mean Visual Injury (%)-21 Days After Application ORYSA ‘Wells’: 0%
[4]; Table 7, 17.5 g ae/ha
  Mean Visual Injury (%)-21 Days After Application ORYSA ‘Wells’: 0%
[4]; Table 7, 35 g ae/ha
  Mean Visual Injury (%)-21 Days After Application ORYSA ‘Wells’: 0%
[4]; Table 7, 70 g ae/ha
  Mean Visual Injury (%)-21 Days After Application ORYSA ‘Wells’: 0%
[4]; Table 7, 140 g ae/ha
  Mean Visual Injury (%)-21 Days After Application ORYSA ‘Wells’: 5%
[4]; [7]
  GR50 ORYSA ‘Wells’: >140 g ae/ha
[4]; [8]
  GR90 ORYSA ‘Wells’: >140 g ae/ha
[5]; Table 7, 8.75 g ae/ha
  Mean Visual Injury (%)-21 Days After Application ORYSA ‘M202’: 0%
[5]; Table 7, 17.5 g ae/ha
  Mean Visual Injury (%)-21 Days After Application ORYSA ‘M202’: 0%
[5]; Table 7, 35 g ae/ha
  Mean Visual Injury (%)-21 Days After Application ORYSA ‘M202’: 0%
[5]; Table 7, 70 g ae/ha
  Mean Visual Injury (%)-21 Days After Application ORYSA ‘M202’: 7%
[5]; Table 7, 140 g ae/ha
  Mean Visual Injury (%)-21 Days After Application ORYSA ‘M202’: 8%
[5]; [7]
  GR50 ORYSA ‘M202’: >140 g ae/ha
[5]; [8]
  GR90 ORYSA ‘M202’: >140 g ae/ha
[6]; Table 7, 8.75 g ae/ha
  Mean Visual Injury (%)-21 Days After Application MOOVA: 100%
[6]; Table 7, 17.5 g ae/ha
  Mean Visual Injury (%)-21 Days After Application MOOVA: 100%
[6]; Table 7, 35 g ae/ha
  Mean Visual Injury (%)-21 Days After Application MOOVA: 100%
[6]; Table 7, 70 g ae/ha
  Mean Visual Injury (%)-21 Days After Application MOOVA: 100%
[6]; Table 7, 140 g ae/ha
  Mean Visual Injury (%)-21 Days After Application MOOVA: 100%
[6]; [7]
  GR50 MOOVA: <8.75 g ae/ha
[6]; [8]
  GR90 MOOVA: <8.75 g ae/ha
